Reference: ChEMBL document CHEMBL1138899, “Acyclic nucleoside analogues as inhibitors of Plasmodium falciparum dUTPase” (J Med Chem, 2006)

Assays:
[1] = tested on: L6; assay: Cytotoxicity against rat L6 cells; type: functional, cell-based
[2] = tested on: Plasmodium falciparum; assay: Antiplasmodial activity against Plasmodium falciparum; type: functional, organism-based
[3] = biological target: T1, dUTP pyrophosphatase (Plasmodium falciparum 3D7, UniProt Q8II92); assay: Inhibition of Plasmodium falciparum dUTPase
T1 sequence (Q8II92 whole entry): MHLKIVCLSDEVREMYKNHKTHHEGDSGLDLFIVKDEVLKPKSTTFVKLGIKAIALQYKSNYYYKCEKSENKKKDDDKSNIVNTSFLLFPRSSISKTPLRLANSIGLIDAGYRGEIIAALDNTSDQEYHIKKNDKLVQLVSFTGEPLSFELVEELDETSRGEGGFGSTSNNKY

[4] = biological target: T2, Deoxyuridine 5'-triphosphate nucleotidohydrolase, mitochondrial (Homo sapiens, UniProt P33316); assay: Inhibition of human recombinant dUTPase
T2 sequence (P33316 whole entry): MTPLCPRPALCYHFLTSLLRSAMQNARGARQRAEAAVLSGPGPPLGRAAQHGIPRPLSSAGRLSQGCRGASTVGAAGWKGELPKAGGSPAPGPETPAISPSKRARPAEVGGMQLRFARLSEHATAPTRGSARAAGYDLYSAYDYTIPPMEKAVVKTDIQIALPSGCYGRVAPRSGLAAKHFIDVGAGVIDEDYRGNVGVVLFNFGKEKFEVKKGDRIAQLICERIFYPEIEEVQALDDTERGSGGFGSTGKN

[5] = biological target: T3, dUTP pyrophosphatase (Plasmodium falciparum 3D7) (UniProt Q8II92); assay: Selectivity index, human dUTPase/Plasmodium falciparum dUTPase
T3 sequence (whole entry): T1 sequence (Q8II92 whole entry)

[6] = Intrinsic clearance in human liver microsome; type: ADME; conditions: liver microsomes
[7] = Stability in simulated gastric fluid after 0.2 mins; type: ADME; conditions: read-out: Stability
[8] = Stability in simulated gastric fluid after 150 mins; type: ADME; conditions: read-out: Stability
[9] = Stability in simulated gastric fluid after 5 mins; type: ADME; conditions: read-out: Stability

Row | SMILES | IC50 [1] | IC50 [2] | Ki [3] | Ki [4] | Selectivity index [5] | microsomal CLint [6] | remaining at 12 s [7] | remaining at 2.5 h [8] | remaining at 5 min [9]
1 | CC(C)(C)[Si](OCCCCCCn1ccc(=O)[nH]c1=O)(c1ccccc1)c1ccccc1 | 18 µM | 3.9 µM | 8.5 µM | > 1000 µM | > 118 | – | – | – | –
2 | O=c1ccn(CCCCO[Si](c2ccccc2)(c2ccccc2)c2ccccc2)c(=O)[nH]1 | – | 0.36 µM | 2.2 µM | > 1000 µM | > 446 | 69 µL/min/mg | < 2% | – | –
3 | O=c1ccn(CCCCO)c(=O)[nH]1 | – | 235 µM | > 1000 µM | > 1000 µM | – | – | – | – | –
4 | O=C(OCCCn1ccc(=O)[nH]c1=O)c1ccccc1 | – | > 18 µM | 9.2 µM | 898 µM | > 97 | – | – | – | –
5 | CC(C)(C)[Si](C)(C)O | > 680 µM | > 37 µM | – | – | – | – | – | – | –
6 | O=c1ccn(CCCCCCNC(c2ccccc2)(c2ccccc2)c2ccccc2)c(=O)[nH]1 | 40 µM | 1.1 µM | 1.8 µM | > 1000 µM | > 543 | – | – | – | –
7 | O=C(OCCCCn1ccc(=O)[nH]c1=O)c1ccccc1 | – | 38 µM | 224 µM | 496 µM | 2 | – | – | – | –
8 | O[Si](c1ccccc1)(c1ccccc1)c1ccccc1 | 138 µM | 0.65 µM | > 1000 µM | > 1000 µM | – | – | – | – | –
9 | OC(c1ccccc1)(c1ccccc1)c1ccccc1 [TRIPHENYLMETHANOL] | – | 12 µM | > 1000 µM | > 1000 µM | – | – | – | – | –
10 | O=c1ccn(CCCCNC(c2ccccc2)(c2ccccc2)c2ccccc2)c(=O)[nH]1 | 33 µM | 3.8 µM | – | > 1000 µM | > 1110 | 64 µL/min/mg | – | 94% | –
11 | O=c1ccn(CCCCCO[Si](c2ccccc2)(c2ccccc2)c2ccccc2)c(=O)[nH]1 | 47 µM | 0.38 µM | 3.8 µM | > 1000 µM | > 265 | – | – | – | –
12 | CC(C)(C)[Si](C)(C)OCCCn1ccc(=O)[nH]c1=O | 192 µM | > 18 µM | 73 µM | 73 µM | 1 | – | – | – | –
13 | O=c1ccn([C@H]2C[C@H](F)[C@@H](COC(c3ccccc3)(c3ccccc3)c3ccccc3)O2)c(=O)[nH]1 | – | 2 µM | – | 457 µM | – | – | – | – | –
14 | O=c1ccn(COCCOC(c2ccccc2)(c2ccccc2)c2ccccc2)c(=O)[nH]1 | 39 µM | 0.9 µM | 0.7 µM | 17 µM | 25 | 96 µL/min/mg | – | – | –
15 | O=c1ccn([C@H]2C[C@H](O)[C@@H](COC(c3ccccc3)(c3ccccc3)c3ccccc3)O2)c(=O)[nH]1 | 192 µM | 6 µM | – | 18 µM | 10 | – | – | – | –
16 | O=c1ccn(CCCO[Si](c2ccccc2)(c2ccccc2)c2ccccc2)c(=O)[nH]1 | 70 µM | 0.58 µM | 1.6 µM | 25 µM | 16 | – | – | – | –
17 | O=c1ccn(CC(CCO)COC(c2ccccc2)(c2ccccc2)c2ccccc2)c(=O)[nH]1 (configuration not stated) | 57 µM | 1.9 µM | 0.9 µM | 21 µM | – | – | – | – | –
18 | O=c1ccn(CCCNC(c2ccccc2)(c2ccccc2)c2ccccc2)c(=O)[nH]1 | 107 µM | 4.4 µM | 0.2 µM | 1.4 µM | 7 | – | – | – | –
19 | O=c1ccn(C/C=C\COC(c2ccccc2)(c2ccccc2)c2ccccc2)c(=O)[nH]1 | 39 µM | 3.5 µM | 1.2 µM | 5.2 µM | 4 | – | – | – | –
20 | O=C(OCCOCn1ccc(=O)[nH]c1=O)c1ccccc1 | 202 µM | 127 µM | 98 µM | 311 µM | 3 | – | – | – | –
21 | O=c1ccn(CCCCCO)c(=O)[nH]1 | > 454 µM | 20 µM | > 1000 µM | > 1000 µM | – | – | – | – | –

Row | SMILES | IC50 [1] | IC50 [2] | Ki [3] | Ki [4] | Selectivity index [5] | microsomal CLint [6] | remaining at 12 s [7] | remaining at 2.5 h [8] | remaining at 5 min [9]
22 | O=C(NCCCCn1ccc(=O)[nH]c1=O)OCc1ccccc1 | – | 15 µM | 17 µM | > 1000 µM | > 60 | – | – | – | –
23 | CC(C)(C)OC(=O)NCC(CCn1ccc(=O)[nH]c1=O)COC(c1ccccc1)(c1ccccc1)c1ccccc1 (configuration not stated) | – | 0.9 µM | 2.5 µM | > 1000 µM | – | – | – | – | –
24 | O=c1ccn(CCCCCCO[Si](c2ccccc2)(c2ccccc2)c2ccccc2)c(=O)[nH]1 | 50 µM | 0.46 µM | 1.7 µM | 383 µM | 227 | 35 µL/min/mg | < 2% | – | –
25 | CC(C)(C)[Si](C)(C)OCCOCn1ccc(=O)[nH]c1=O | > 299 µM | 62 µM | 44 µM | 63 µM | 1.4 | – | – | – | –
26 | O=c1ccn(CCCCCCOC(c2ccccc2)(c2ccccc2)c2ccccc2)c(=O)[nH]1 | 44 µM | 2.3 µM | 9.6 µM | 476 µM | 50 | – | – | – | –
27 | O=c1ccn(CCCCCCO)c(=O)[nH]1 | – | 19 µM | > 1000 µM | 636 µM | – | – | – | – | –
28 | O=c1ccn([C@H]2C[C@H](O)[C@@H](CNC(c3ccccc3)(c3ccccc3)c3ccccc3)O2)c(=O)[nH]1 | 44 µM | 4.5 µM | – | 46 µM | – | – | – | – | –
29 | O=C(OCCCCCCn1ccc(=O)[nH]c1=O)c1ccccc1 | – | 3.4 µM | 32 µM | > 1000 µM | > 31 | – | – | – | –
30 | O=c1ccn(CCCOC(c2ccccc2)(c2ccccc2)c2ccccc2)c(=O)[nH]1 | 34 µM | 7.5 µM | 87 µM | 313 µM | 4 | – | – | – | –
31 | O=c1ccn([C@H]2C[C@H](O)[C@@H](CO[Si](c3ccccc3)(c3ccccc3)c3ccccc3)O2)c(=O)[nH]1 | – | 1.1 µM | – | – | – | – | – | – | –
32 | O=c1ccn(C/C=C/COC(c2ccccc2)(c2ccccc2)c2ccccc2)c(=O)[nH]1 | 34 µM | 3.7 µM | 0.6 µM | > 1000 µM | > 1670 | – | – | – | –
33 | O=c1ccn(CCCCCOC(c2ccccc2)(c2ccccc2)c2ccccc2)c(=O)[nH]1 | 24 µM | 1.1 µM | 2 µM | > 1000 µM | > 500 | – | – | – | –
34 | CC(C)(C)OC(=O)NCCCCn1ccc(=O)[nH]c1=O | – | 17 µM | 112 µM | > 1000 µM | > 8 | – | – | – | –
35 | O=c1ccn(CCCCOC(c2ccccc2)(c2ccccc2)c2ccccc2)c(=O)[nH]1 | 42 µM | 4.9 µM | 1.6 µM | > 1000 µM | > 617 | 68 µL/min/mg | – | – | 2%
36 | O=c1ccn(CCC(CO)CNC(c2ccccc2)(c2ccccc2)c2ccccc2)c(=O)[nH]1 (configuration not stated) | 55 µM | 3.2 µM | 0.24 µM | 5.7 µM | – | – | – | – | –
37 | O=c1ccn(CC(CO)CCOC(c2ccccc2)(c2ccccc2)c2ccccc2)c(=O)[nH]1 (configuration not stated) | 33 µM | 1.2 µM | 2.2 µM | 260 µM | – | – | – | – | –
38 | O=c1ccn(CCCCCNC(c2ccccc2)(c2ccccc2)c2ccccc2)c(=O)[nH]1 | 39 µM | 2.2 µM | – | > 1000 µM | > 233 | – | – | – | –
39 | O=c1ccn(CCCO)c(=O)[nH]1 | – | > 29 µM | 368 µM | > 1000 µM | > 2 | – | – | – | –
40 | [N-]=[N+]=NCC(CCOC(c1ccccc1)(c1ccccc1)c1ccccc1)Cn1ccc(=O)[nH]c1=O (configuration not stated) | 18 µM | 0.64 µM | 23 µM | > 1000 µM | – | – | – | – | –
41 | CC(=O)OCC(CCn1ccc(=O)[nH]c1=O)CNC(c1ccccc1)(c1ccccc1)c1ccccc1 (configuration not stated) | 37 µM | 2.8 µM | 1.3 µM | 74 µM | – | – | – | – | –
